The values below come from patent US9468641B2, “Anti-inflammatory pharmaceutical composition comprising benzopyranyl tetracycles” (SEOUL NATIONAL UNIVERSITY R&DB FOUNDATION, priority 2014, dated 2016).

The assay has as its system BV-2 cells. The experiment in a line: Griess assay of LPS-induced nitrite release in BV-2 cells. The assay is classed as cell-based. Particulars: BV-2 cells, Griess assay; expressed as percentages of the nitrite level produced upon DMSO treatment (100%). Here is the method:
Cells increase the secretion of nitrite when induced to be inflammatory, but decrease the secretion of nitrite in the presence of an anti-inflammatory agent. […] Cells were treated with the compounds in the absence or presence of 100 ng/mL LPS (lipopolysaccharide). After 24 hrs of incubation, the cell culture media were reacted with Griess reagent (0.1% naphthylethylenediamine dihydrochloride and 1% sulfanilamide in 2% phosphoric acid). Absorbance was measured at 550 nm using a microplate reader, and the level of nitrite was estimated by comparison with a sodium nitrite standard curve.
On the technique in general: Nitrite, measured by Griess reagent, commonly stands in for NO production.
For the compound `CC1(C)Oc2cc(O)ccc2C2C1=CCn1c(=O)n(-c3ccccc3Cl)c(=O)n12` (centres unmarked) [Chemical Formula 26], the “NO inhibition (%)” value came to 57.1%.

On to `CC1(C)Oc2cc(O)ccc2C2C1=CCn1c(=O)n(Cc3ccccc3)c(=O)n12` (centres unmarked) [Chemical Formula 5], for which the “NO inhibition (%)” value was 63.0%.

With `O=c1n(-c2ccccc2Cl)c(=O)n2n1CC=C1C2c2ccc(O)cc2OC12CCCC2` (centres unmarked) [Chemical Formula 27], the “NO inhibition (%)” value was 44.8%.

In the case of `CC(C)(C)c1ccc(-n2c(=O)n3n(c2=O)C2C(=CC3)C3(CCCC3)Oc3cc(O)ccc32)cc1` (centres unmarked) [Chemical Formula 18], the “NO inhibition (%)” value is 99.7%.

With `CC1(C)Oc2cc(O)ccc2C2C1=CCn1c(=O)n(-c3ccc(Cl)cc3)c(=O)n12` (centres unmarked) [Chemical Formula 24], the “NO inhibition (%)” value came to 22.3%.

On to `Cn1c(=O)n2ccc3c(n2c1=O)-c1ccc(O)cc1OC3(C)C` [Chemical Formula 31], for which the “NO inhibition (%)” value was determined as 12.1%.

Turning to `O=c1n(-c2cccc([N+](=O)[O-])c2)c(=O)n2n1CC=C1C2c2ccc(O)cc2OC12CCCC2` (centres unmarked) [Chemical Formula 23], the “NO inhibition (%)” value came to 81.5%.

For the compound `O=c1n(-c2ccc(Cl)cc2)c(=O)n2n1CC=C1C2c2ccc(O)cc2OC12CCCC2` (centres unmarked) [Chemical Formula 25], the “NO inhibition (%)” value was 44.0%.

On to `O=c1n(-c2ccccc2)c(=O)n2n1CCC1C2c2ccc(O)cc2OC12CCCC2` (centres unmarked) [Chemical Formula 33], for which the “NO inhibition (%)” value was 41.8%.

On to `Cn1c(=O)n2n(c1=O)C1C(=CC2)C(C)(C)Oc2cc(O)ccc21` (centres unmarked) [Chemical Formula 4], for which the “NO inhibition (%)” value is reported as 75.0%.

Turning to `COc1cccc(-n2c(=O)n3n(c2=O)C2C(=CC3)C(C)(C)Oc3cc(O)ccc32)c1` (centres unmarked) [Chemical Formula 9], the “NO inhibition (%)” value turned out to be 90.8%.

`COc1cccc(-n2c(=O)n3n(c2=O)C2C(=CC3)C3(CCCC3)Oc3cc(O)ccc32)c1` (centres unmarked) [Chemical Formula 20]: the “NO inhibition (%)” value amounted to 63.0%.

Consider `CC1(C)Oc2cc(O)ccc2C2C1=CCn1c(=O)n(-c3ccc(Br)cc3)c(=O)n12` (centres unmarked) [Chemical Formula 28], for which the “NO inhibition (%)” value worked out at 58.4%.

On to `O=c1n(-c2ccccc2I)c(=O)n2n1CC=C1C2c2ccc(O)cc2OC12CCCC2` (centres unmarked) [Chemical Formula 22], for which the “NO inhibition (%)” value was 67.1%.

Turning to `CC1(C)Oc2cc(O)ccc2C2C1=CCn1c(=O)n(-c3ccc(C(=O)c4ccccc4)cc3)c(=O)n12` (centres unmarked) [Chemical Formula 48], the “NO inhibition (%)” value is 65.5%.

Consider `Cc1ccc(-n2c(=O)n3n(c2=O)C2C(=CC3)C3(CCCC3)Oc3cc(O)ccc32)cc1` (centres unmarked) [Chemical Formula 17], for which the “NO inhibition (%)” value was 72.1%.

Regarding `CCOC(=O)CCC1(C)Oc2cc(O)ccc2C2C1=CCn1c(=O)n(-c3ccccc3)c(=O)n12` (centres unmarked) [Chemical Formula 39], the “NO inhibition (%)” value is given as 44.9%.

As for `COc1cccc(-n2c(=O)n3n(c2=O)C2c4ccc(O)cc4OC(C)(C)C2C=C3)c1` (centres unmarked) [Chemical Formula 34], the “NO inhibition (%)” value came to 4.9%.

For `O=c1n(-c2ccccc2)c(=O)n2n1CC=C1C2c2ccc(O)cc2OC12CCCC2` (centres unmarked) [Chemical Formula 13], the “NO inhibition (%)” value is 70.4%.

In the case of `CC1(C)Oc2cc(O)ccc2C2C1=CCn1c(=O)n(-c3ccc(C(F)(F)F)cc3)c(=O)n12` (centres unmarked) [Chemical Formula 47], the “NO inhibition (%)” value amounted to 36.0%.

As to `CC1(C)Oc2cc(O)ccc2C2C1=CCn1c(=O)n(C3CCCCC3)c(=O)n12` (centres unmarked) [Chemical Formula 3], the “NO inhibition (%)” value is reported as 38.0%.

Regarding `CCNC(=O)CCC1(C)Oc2cc(O)ccc2C2C1=CCn1c(=O)n(-c3ccc(C)cc3)c(=O)n12` (centres unmarked) [Chemical Formula 51], the “NO inhibition (%)” value was found to be 6.2%.

Consider `COc1ccc(-n2c(=O)n3n(c2=O)C2C(=CC3)C3(CCCC3)Oc3cc(O)ccc32)cc1` (centres unmarked) [Chemical Formula 19], for which the “NO inhibition (%)” value is recorded as 58.3%.

For `COc1ccc(-n2c(=O)n3n(c2=O)C2C(=CC3)C(C)(C)Oc3cc(O)ccc32)cc1` (centres unmarked) [Chemical Formula 8], the “NO inhibition (%)” value was 77.7%.

With `COc1ccc2c(c1)OC(C)(C)C1=CCn3c(=O)n(-c4ccccc4)c(=O)n3C12` (centres unmarked) [Chemical Formula 36], the “NO inhibition (%)” value is 3.2%.

Take `O=c1n(Cc2ccccc2)c(=O)n2n1CC=C1C2c2ccc(O)cc2OC12CCCC2` (centres unmarked) [Chemical Formula 16]: the “NO inhibition (%)” value is 53.2%.

As for `O=c1n(C2CCCCC2)c(=O)n2n1CC=C1C2c2ccc(O)cc2OC12CCCC2` (centres unmarked) [Chemical Formula 14], the “NO inhibition (%)” value came out at 48.8%.

On to `O=c1n(-c2ccc(F)cc2)c(=O)n2n1CC=C1C2c2ccc(O)cc2OC12CCCC2` (centres unmarked) [Chemical Formula 21], for which the “NO inhibition (%)” value is given as 58.7%.

Consider `CC1(C)Oc2cc(O)ccc2C2C1C=Cn1c(=O)n(-c3ccccc3)c(=O)n12` (centres unmarked) [Chemical Formula 32], for which the “NO inhibition (%)” value turned out to be 24.9%.

For `CC1(C)Oc2ccccc2C2C1=CCn1c(=O)n(-c3ccccc3)c(=O)n12` (centres unmarked) [Chemical Formula 35], the “NO inhibition (%)” value is listed as 1.2%.

`Cn1c(=O)n2n(c1=O)C1C(=CC2)C2(CCCC2)Oc2cc(O)ccc21` (centres unmarked) [Chemical Formula 15]: the “NO inhibition (%)” value was 41.4%.

For `CC1(C)Oc2cc(O)ccc2C2C1=CCn1c(=O)n(-c3cccc([N+](=O)[O-])c3)c(=O)n12` (centres unmarked) [Chemical Formula 12], the “NO inhibition (%)” value was found to be 70.4%.

On to `CC1(C)Oc2cc(O)ccc2C2C1=CCn1c(=O)n(-c3ccccc3I)c(=O)n12` (centres unmarked) [Chemical Formula 11], for which the “NO inhibition (%)” value is on record as 55.2%.

As to `O=c1n(-c2ccc(Br)cc2)c(=O)n2n1CC=C1C2c2ccc(O)cc2OC12CCCC2` (centres unmarked) [Chemical Formula 29], the “NO inhibition (%)” value was 44.0%.

On to `CC1(C)Oc2cc(O)ccc2C2C1=CCn1c(=O)n(-c3ccc(F)cc3)c(=O)n12` (centres unmarked) [Chemical Formula 10], for which the “NO inhibition (%)” value was found to be 76.4%.

For `COC(=O)CCC1(C)Oc2cc(O)ccc2C2C1=CCn1c(=O)n(-c3ccc(C)cc3)c(=O)n12` (centres unmarked) [Chemical Formula 49], the “NO inhibition (%)” value stood at 63.2%.

Take `Cc1ccc(-n2c(=O)n3n(c2=O)C2C(=CC3)C(C)(C)Oc3cc(O)ccc32)cc1` (centres unmarked) [Chemical Formula 6]: the “NO inhibition (%)” value amounted to 41.8%.

For `CC1(C)Oc2cc(O)ccc2C2C1=CCn1c(=O)n(-c3ccc(C(C)(C)C)cc3)c(=O)n12` (centres unmarked) [Chemical Formula 7], the “NO inhibition (%)” value amounted to 92.1%.
